Each structure is given as a SMILES string. Read-outs that look alike come from different tables or passages of the source.

One series concerns the target T1, PPARУ (Homo sapiens, UniProt P37231).
T1 construct: Cerep (Eurofins, France)
T1 sequence (P37231 1-505): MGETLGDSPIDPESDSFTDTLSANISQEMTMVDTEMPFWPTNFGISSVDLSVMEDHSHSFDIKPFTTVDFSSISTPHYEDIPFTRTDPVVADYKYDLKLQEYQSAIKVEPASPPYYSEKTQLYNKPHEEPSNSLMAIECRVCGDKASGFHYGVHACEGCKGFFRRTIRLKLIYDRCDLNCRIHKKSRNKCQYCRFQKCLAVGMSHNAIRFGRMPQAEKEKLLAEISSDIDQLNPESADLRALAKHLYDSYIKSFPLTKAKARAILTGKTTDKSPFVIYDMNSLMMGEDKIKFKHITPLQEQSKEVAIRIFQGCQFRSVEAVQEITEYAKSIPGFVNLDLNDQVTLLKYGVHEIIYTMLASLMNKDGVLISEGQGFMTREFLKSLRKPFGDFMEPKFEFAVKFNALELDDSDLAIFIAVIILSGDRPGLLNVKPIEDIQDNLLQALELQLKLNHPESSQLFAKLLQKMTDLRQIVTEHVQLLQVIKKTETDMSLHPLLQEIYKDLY
The series is described as follows: Cerep cellular and nuclear receptor functional assay. Conditions: read-out: IC50, antagonist effect. The class given is cell-based.

In the next series the target is T2, 5-HT2B (Homo sapiens, UniProt P41595).
T2 construct: Cerep (Eurofins, France)
T2 sequence (P41595 whole entry): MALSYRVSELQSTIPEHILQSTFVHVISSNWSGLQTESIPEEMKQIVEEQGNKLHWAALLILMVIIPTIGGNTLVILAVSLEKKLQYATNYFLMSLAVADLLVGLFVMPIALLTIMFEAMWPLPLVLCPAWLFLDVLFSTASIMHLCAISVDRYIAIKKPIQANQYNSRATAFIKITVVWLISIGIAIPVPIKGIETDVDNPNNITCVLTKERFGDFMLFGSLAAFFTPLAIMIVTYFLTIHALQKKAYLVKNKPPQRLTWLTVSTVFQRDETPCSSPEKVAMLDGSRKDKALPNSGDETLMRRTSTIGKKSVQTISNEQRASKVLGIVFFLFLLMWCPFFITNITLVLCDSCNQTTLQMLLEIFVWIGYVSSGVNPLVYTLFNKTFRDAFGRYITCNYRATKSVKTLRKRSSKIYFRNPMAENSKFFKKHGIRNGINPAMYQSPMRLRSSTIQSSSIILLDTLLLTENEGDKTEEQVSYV
The description is as above. The settings on record: read-out: IC50, antagonist effect. The class given is cell-based.

For series [1], the system named is C. parvum U AZ Laboratory isolate. The series is described as follows: microbe, parasite or virus in culture. The class given is cell-based, Cryptosporidium parvum. Conditions: Cryptosporidium parvum; for EC50: Calibr Crypto Panel 2, 2018-06-18, read-out: Sterling Lab C. parvum Spot Count EC50; for EC90: Calibr Crypto Panel 2, read-out: Sterling Lab C. parvum Spot Count EC90.

Series [2] deals with C. parvum Bunch Grass Farms isolate. The series is described as follows: Calibr high-content imaging Cryptosporidium panel. Conditions: Cryptosporidium parvum. The class given is cell-based, Cryptosporidium parvum.
The test system of series [3] is C. parvum Zambriski Laboratory isolate. The series is described as follows: Calibr high-content imaging Cryptosporidium panel. The settings on record: Cryptosporidium parvum; for EC50: read-out: Wild C. parvum Spot Count EC50; for EC90: read-out: Wild C. parvum Spot Count EC90. The format is cell-based, Cryptosporidium parvum.
The test system of a further series is C. hominis TU502 isolate. The series is described as follows: Calibr high-content imaging Cryptosporidium panel. Conditions: Cryptosporidium hominis. The class given is cell-based, Cryptosporidium hominis.
The next series has as its system NLuc C. parvum (Calibr). The series is described as follows: Calibr panel, UA Nanoluc C. parvum count. The class given is cell-based. The settings on record: Cryptosporidium parvum; for EC50: read-out: UA Nanoluc C. parvum Count EC50; for EC90: read-out: UA Nanoluc C. parvum Count EC90.
The nature of the next series: 72H HEK293T Cytotoxicity. Conditions: human, HEK293T cells. The class given is cell-based.
The nature of series [4]: HCT-8 host cell count (Calibr). The settings on record: human.
Where [5] appears, read: read-out: Bunch Grass Farm C. parvum Count EC50, Crypto Panel 3 Replicate 1.
Where [6] appears, read: read-out: Bunch Grass Farm C. parvum Count EC50, Crypto Panel 3 Replicate 2.
Where [7] appears, read: read-out: Bunch Grass Farm C. parvum Count EC90, Replicate 1.
[8] abbreviates: read-out: Bunch Grass Farm C. parvum Count EC90, Replicate 2.
Setting [9] is: read-out: Bunch Grass Farm C. parvum Spot Count EC50, Calibr Crypto Panel 2.
Where [10] appears, read: read-out: Bunch Grass Farm C. parvum Spot Count EC90, Calibr Crypto Panel 2.
[11] abbreviates: read-out: C. hominis Spot Count EC50, Calibr Crypto Panel 2, 2018-07-02.
[12] abbreviates: read-out: C. hominis Spot Count EC90, Calibr Crypto Panel 2.
Setting [13] is: read-out: TU502 C. hominis Count EC50, Replicate 1.
Setting [14] is: read-out: TU502 C. hominis Count EC50, Replicate 2.
Where [15] appears, read: read-out: TU502 C. hominis Count EC90, Replicate 1.
Setting [16] is: read-out: TU502 C. hominis Count EC90, Replicate 2.
Where [17] appears, read: CC50, HCT-8 cells infected with BGF Cp, Replicate 1.
Setting [18] is: CC50, HCT-8 cells infected with BGF Cp, Replicate 2.
Where [19] appears, read: CC50, HCT-8 cells infected with Ch, Replicate 1.
[20] abbreviates: CC50, HCT-8 cells infected with Ch, Replicate 2.
The mark [21] stands for this setting: CC50, HCT-8 cells infected with UA Nluc Cp, Replicate 1.
Where [22] appears, read: CC50, HCT-8 cells infected with UA Nluc Cp, Replicate 2.
The mark [23] stands for this setting: HCT-8 Cell Count CC50, host cells infected with Sterling oocysts.
The mark [24] stands for this setting: Crypto Panel 3 Replicate 1, read-out: Bunch Grass Farm C. parvum Count EC50.
Setting [25] is: Crypto Panel 3 Replicate 2, read-out: Bunch Grass Farm C. parvum Count EC50.
The mark [26] stands for this setting: Replicate 1, read-out: Bunch Grass Farm C. parvum Count EC90.
Setting [27] is: Replicate 2, read-out: Bunch Grass Farm C. parvum Count EC90.
Setting [28] is: Replicate 1, read-out: TU502 C. hominis Count EC50.
Setting [29] is: Replicate 1, read-out: TU502 C. hominis Count EC90.
[30] abbreviates: Replicate 2, read-out: TU502 C. hominis Count EC50.
Setting [31] is: Replicate 2, read-out: TU502 C. hominis Count EC90.

`O=C(Nc1ccccc1)c1cc([N+](=O)[O-])ccc1Cl` [GW 9662, reference compound]: the 50% inhibitory concentration (IC50) at PPARУ was 34 nM.
Consider `Cn1ccc2cc3c(cc21)CCN3C(=O)Nc1cccnc1` [SB 206553, reference compound], for which the 50% inhibitory concentration (IC50) at 5-HT2B is 21 nM.
As to `COc1ccc(C[C@H](N)C(=O)N[C@H]2[C@@H](O)[C@H](n3cnc4c(N(C)C)ncnc43)O[C@@H]2CO)cc1` [Puromycin], the EC50 in series [1] is 165 nM; in series [2] (setting [5]) it was 403 nM; in series [2] (setting [6]), 274 nM; in series [2] (setting [9]), 177 nM; in series [3] it was 274 nM; in the series on C. hominis TU502 isolate (setting [11]), 1840 nM. In addition, the EC50 in the series with C. hominis TU502 isolate (setting [13]) was 730 nM; in the series on C. hominis TU502 isolate (setting [14]), 504 nM; in the series with NLuc C. parvum (Calibr) (Replicate 1), 337 nM; with NLuc C. parvum (Calibr) (Replicate 2), 233 nM. Besides, the concentration for an effect of 90% (EC90) in series [1] stood at 406 nM; in series [2] (setting [7]), 1140 nM; in series [2] (setting [8]), 847 nM; in series [2] (setting [10]), 398 nM; in series [3], 1920 nM; in the series with C. hominis TU502 isolate (setting [12]), 3570 nM. Further, the EC90 worked out at 1900 nM in the series on C. hominis TU502 isolate (setting [15]), 1500 nM with C. hominis TU502 isolate (setting [16]), 1020 nM with NLuc C. parvum (Calibr) (Replicate 1) and 1320 nM in the series with NLuc C. parvum (Calibr) (Replicate 2). This compound displayed a CC50 at 72 h in the series “72H HEK293T Cytotoxicity” of 319 nM. The cytotoxic concentration (CC50) in series [4] (setting [17]) is 3090 nM; in series [4] (setting [18]) it was 2810 nM; in [4] (setting [19]) it was 2660 nM; in series [4] (setting [20]) it was 2810 nM; in [4] (setting [21]), 2970 nM; in series [4] (setting [22]), 2370 nM. For the same compound, half-maximal cytotoxicity in series [4] (setting [23]) (CC50) was put at 3100 nM.
Consider `CC(=O)Oc1ccccc1C(=O)Nc1ncc([N+](=O)[O-])s1` [Nitazoxanide], for which the half-maximal effective concentration (EC50) in series [1] was found to be 3940 nM; in [2] (setting [24]) it was 11300 nM; in [2] (setting [25]), 6050 nM; in series [2] (Calibr Crypto Panel 2, read-out: Bunch Grass Farm C. parvum Spot Count EC50) it was 6990 nM; in [3] (Calibr Crypto Panel 2), 9040 nM; in the series on C. hominis TU502 isolate (Calibr Crypto Panel 2, 2018-07-02, read-out: C. hominis Spot Count EC50), 5820 nM. For the same compound, the EC50 in the series with C. hominis TU502 isolate (setting [28]) was 8220 nM; with C. hominis TU502 isolate (setting [30]), 6030 nM; with NLuc C. parvum (Calibr) (Replicate 1), over 30000 nM; in the series with NLuc C. parvum (Calibr) (Replicate 2), 4760 nM. Further, the EC90 was determined as 20800 nM in series [1]; 19600 nM in series [2] (setting [26]); 12000 nM in [2] (setting [27]); 16800 nM in series [2] (Calibr Crypto Panel 2, read-out: Bunch Grass Farm C. parvum Spot Count EC90); 15700 nM in [3] (Calibr Crypto Panel 2); 278000 nM in the series with C. hominis TU502 isolate (Calibr Crypto Panel 2, read-out: C. hominis Spot Count EC90). The concentration for an effect of 90% (EC90) in the series with C. hominis TU502 isolate (setting [29]) is 14200 nM; with C. hominis TU502 isolate (setting [31]), 12300 nM; in the series with NLuc C. parvum (Calibr) (Replicate 1), over 30000 nM; with NLuc C. parvum (Calibr) (Replicate 2) it was 25000 nM. The CC50 at 72 h in “72H HEK293T Cytotoxicity” was 40300 nM. In addition, the CC50 in [4] (setting [17]), in series [4] (setting [18]), in series [4] (setting [19]), in series [4] (setting [20]), in series [4] (setting [21]) and in [4] (setting [22]) was over 30000 nM each time. The same compound showed a CC50 in series [4] (setting [23]) of 19900 nM.
For `O=c1[nH]c(=O)n([C@H]2C[C@H](O)[C@@H](CO)O2)cc1F` [5-fluoro-2'-deoxyuridine], the concentration giving a half-maximal response (EC50) in series [1] stood at 3.67 nM; in series [2] (setting [5]), 39.7 nM; in series [2] (setting [6]) it was 29 nM; in series [2] (setting [9]) it was 3.1 nM; in series [3], 5.29 nM; in the series with C. hominis TU502 isolate (setting [11]), 33.5 nM. Moreover, the EC50 stood at 51.1 nM in the series with C. hominis TU502 isolate (setting [13]), 29.2 nM in the series with C. hominis TU502 isolate (setting [14]), 43.1 nM in the series with NLuc C. parvum (Calibr) (Replicate 1) and 33.1 nM in the series with NLuc C. parvum (Calibr) (Replicate 2). Further, the EC90 in series [1] was found to be 9.97 nM; in [2] (setting [7]), 68.8 nM; in [2] (setting [8]), 86 nM; in series [2] (setting [10]), 11.7 nM; in series [3] it was 80.4 nM; in the series on C. hominis TU502 isolate (setting [12]) it was 679 nM. The EC90 in the series on C. hominis TU502 isolate (setting [15]) was 196 nM; with C. hominis TU502 isolate (setting [16]), 222 nM; with NLuc C. parvum (Calibr) (Replicate 1) it was 158 nM; with NLuc C. parvum (Calibr) (Replicate 2) it was 117 nM. Besides, the midpoint of cytotoxicity in the series “72H HEK293T Cytotoxicity”, the CC50 at 72 h, lay at 7.23 nM. Besides, the CC50 worked out at 192 nM in series [4] (setting [17]); 80.3 nM in [4] (setting [18]); 71.8 nM in series [4] (setting [19]); 9.05 nM in series [4] (setting [20]); 196 nM in series [4] (setting [21]); 43 nM in [4] (setting [22]). In series [4] (setting [23]), this compound came in with a CC50 of 79 nM.
For `CC(C)/N=c1\cc2n(-c3ccc(Cl)cc3)c3ccccc3nc-2cc1Nc1ccc(Cl)cc1` [Clofazimine], the half-maximal effective concentration (EC50) in series [2] (setting [24]) worked out at 119 nM; in series [2] (setting [25]), 678 nM; in the series on C. hominis TU502 isolate (setting [28]), 517 nM; with C. hominis TU502 isolate (setting [30]), 707 nM; with NLuc C. parvum (Calibr) (Replicate 1), 23.6 nM; with NLuc C. parvum (Calibr) (Replicate 2), 67 nM. Besides, the 90% effect concentration (EC90) in series [2] (setting [26]) was found to be 2710 nM; in [2] (setting [27]), 1170 nM; in the series with C. hominis TU502 isolate (setting [29]), 1190 nM; with C. hominis TU502 isolate (setting [31]), 1520 nM; in the series with NLuc C. parvum (Calibr) (Replicate 1) it was 392 nM; with NLuc C. parvum (Calibr) (Replicate 2) it was 1370 nM. Also, the 50% cytotoxic concentration (CC50) in [4] (setting [17]), in series [4] (setting [18]), in series [4] (setting [19]), in series [4] (setting [20]), in series [4] (setting [21]) and in series [4] (setting [22]) was over 25000 nM in each case.

Source of the values: PMC12310023 (PLOS Neglected Tropical Diseases, 2025).
